Assay: 6-month stability study of the compositions (impurity concentrations)
Format: physicochemical

## CCOC(=O)C1=C(COCCN)NC(C)=C(C(=O)OC)C1c1ccccc1Cl (centres unmarked) [amlodipine besylate]
Any storage condition, 6-month stability testing period, composition containing ramipril and amlodipine
  concentration of the main decomposition product of amlodipine besylate (European Pharmacopeia: Impurity D): ≤ 0.05%
Until the end of the six-month stability testing period
  stability of amlodipine besylate in the combination dosage form: remains stable
